Series [1] can be described thus: Plasma stability, human. The series is classed as in vitro ADME. Particulars: 37 °C, read-out: Plasma t½, Human. The protocol:
The plasma stability assay was carried out on 96-well microtiter plates. The test compounds at 5 µM and the reference compound (propantheline) at 1 µM final concentration were incubated separately at 37 °C with mouse or human plasma for 0, 30, 60, and 240 min. At the end of each incubation time point, 300 μL of the quenching solution (50% acetonitrile, 50% methanol, and 0.05% formic acid) containing the internal standard was added to each well. The incubation plates were sealed, vortexed, and centrifuged at 4 °C for 15 min at 4000 rpm. The supernatant was transferred to fresh plates for LC/MS/MS analysis of the test compounds. The peak area ratios of each test compound over the internal standard were plotted against incubation time, and the t½ was calculated from the curve assuming first-order kinetics.

A short description of series [2]: Liver microsomal stability, human. The format is in vitro ADME. The following applies: pH 7.4, 0.5 mg/mL human liver microsomes, 37 °C, read-out: Liver Microsome t½, Human. How it is done:
The liver microsomal stability assay was carried out in 96-well microtiter plates. The test compounds at 5 µM and the reference compound (verapamil) at 1 µM final concentration were incubated separately at 37 °C with 0.5 mg/mL liver microsomes, with or without 1 mM NADPH in 100 mM potassium phosphate buffer, pH 7.4 with 3.3 mM MgCl2. […] At each of the time points (0, 15, 30, and 60 min), the enzymatic reaction was terminated with the addition of 150 μL of quenching solution (100% acetonitrile, 0.1% formic acid, and the internal standard), and subsequently the mixtures were vortexed vigorously for 20 min and centrifuged at 4000 rpm at 10 °C. The supernatants (80 µL) were transferred to a clean 96-well plate and analyzed via LC/MS/MS. The peak area ratios of each test compound over the internal standard were plotted against incubation time, and the t½ was calculated from the curve assuming first-order kinetics.

Series [3] deals with Hepa1–6 tumors. Nature of the series: Hepa1–6 mouse hepatocellular carcinoma model. The series is classed as in vivo. The protocol:
The animals were fed ad libitum water (0.2-μm filtered, reverse osmosis, autoclaved), and standard irradiated rodent chow. The mice were housed on autoclaved, crushed corncob bedding, which was changed weekly, on a 12 h light cycle at 20–26 °C and 40–70% humidity.
The Hepa1–6 tumor cells were maintained in vitro in DMEM supplemented with 10% FBS at 37 °C in an atmosphere of 5% CO2 in air. Cells in the exponential growth phase were harvested and quantitated using a cell counter, adjusted to 5 × 10^7/mL in PBS before tumor inoculation.
Each mouse was inoculated subcutaneously in the right front flank region with Hepa1–6 tumor cells (5 × 10^6) in 0.1 mL PBS for tumor development. After tumor cell inoculation, the animals were checked daily for morbidity and mortality and for any effects of tumor growth or test articles on behavior such as mobility, food and water consumption, eye/hair matting, and any other abnormalities. Dosing started when the average tumor volume reached 98 mm^3. The anti-PD-1 antibody was dosed IP at 10 mg/kg twice per week (BIW), while ALG-031048 was dosed IT at 25 and 100 μg/animal on Days 1, 5, and 9. Tumor volumes were measured […], as described above.
Figure S6. A: Tumor regression in Hepa1‐6 tumor‐bearing […] mice upon IT treatment with three doses of 25 μg (light blue) or 100 μ g ALG‐031048 (dark blue), in comparison to treatment with 10 mg/kg anti‐PD‐1 antibody twice per week, 6 doses total (red). Vehicle‐treated animals are shown in black; shown are the mean tumor volumes ± standard deviation for each group of 10 animals.
Irregular, crater‐shaped tumors prevented accurate tumor volume measurement between Days 8‐
25. Treatment started when tumors reached an average volume of 98 mm3. Statistical analysis pro‐ vided in Table S4. B: Tumor weight for each group at the end of the study. Statistical analysis pro‐ vided in Table S5. C: Plasma cytokine levels 6 hours after the first dose. Each symbol represents one animal as well as the mean of the group (n=10). Unpaired t‐test was used to compare different groups: all groups for al l cytokines were statistically significant from each other with P‐values of < 0.0001 with the following exceptions: vehicle vs anti‐PD‐1 were non‐significant (all cytokines); the […]

This is an account of results in publication PMC10671074, “Tumor Regression upon Intratumoral and Subcutaneous Dosing of the STING Agonist ALG-031048 in Mouse Efficacy Models” (International Journal of Molecular Sciences, 2023).

Consider `CO[C@H]1[C@H]2OP(=O)(O)OC[C@@]34C[C@@H]3[C@@H](n3cnc5c(N)ncnc53)[C@H](O)[C@@H]4O[P@](=O)(S)OC[C@H]1O[C@H]2n1cnc2c(=O)[nH]c(N)nc21` [ALG-031048], for which the values for the half-life at 5 µM in series [1] and in series [2] were more than 1 h and more than 8 h, respectively. In addition, the “Tumor weight at end of study” value in series [3] (Hepa1–6, IT 25 and 100 μg) is reported as “reduction in tumor weight”. In addition, the “Tumor reduction at end of study” value in series [3] (Hepa1–6, three IT doses of 25 μg (Days 1, 5, 9)) is reported as 12%. In addition, in series [3] (Hepa1–6, three IT doses of 100 μg (Days 1, 5, 9)), the “Mean tumor reduction at end of study” value amounted to 88%. For the same compound, the “Complete tumor regression, animals” value in series [3] (Hepa1–6 model) is on record as 100%.
